Experimental data from ChEMBL document CHEMBL4033756, “Identification of Better Pharmacokinetic Benzothiazinone Derivatives as New Antitubercular Agents” (ACS Med Chem Lett, 2017).
Values after ≈ are worked out from the molar mass of the structure shown.

Key:
[1] = tested on: Mycobacterium tuberculosis; assay: Antitubercular activity against multidrug-resistant Mycobacterium tuberculosis 12525 after 7 days by microplate alamar blue assay; type: functional; conditions: Mycobacterium tuberculosis, 12525, 168 h
[2] = tested on: Mycobacterium tuberculosis; assay: Antitubercular activity against multidrug-resistant Mycobacterium tuberculosis 14231 after 7 days by microplate alamar blue assay; type: functional; conditions: Mycobacterium tuberculosis, 14231, 168 h

Row | Compound | MIC90 [1] [µM] | MIC90 [2] [µM]
1 | O=c1nc(N2CCC3(CCN(Cc4ccc(Br)cc4)CC3)CC2)sc2c([N+](=O)[O-])cc(C(F)(F)F)cc12 | 0.092 (≈ 0.055 µg/mL) | 0.086 (≈ 0.0514 µg/mL)
2 | O=c1nc(N2CCC3(CCN(Cc4ccc(F)cc4)C3)CC2)sc2c([N+](=O)[O-])cc(C(F)(F)F)cc12 | < 0.035 | 0.034 (≈ 0.0178 µg/mL)
3 | CO[C@H]1/C=C/O[C@@]2(C)Oc3c(C)c(O)c4c(O)c(c(/C=N/N5CCN(C)CC5)c(O)c4c3C2=O)NC(=O)/C(C)=C\C=C\[C@H](C)[C@H](O)[C@@H](C)[C@@H](O)[C@@H](C)[C@H](OC(C)=O)[C@@H]1C [RIFAMPIN] | 27.2 (≈ 22.4 µg/mL) | > 48.6
4 | O=c1nc(N2CCN(CC3CCCCC3)CC2)sc2c([N+](=O)[O-])cc(C(F)(F)F)cc12 [MACOZINONE] | < 0.035 | < 0.035
5 | COc1ccc(CN2CCC3(CCN(c4nc(=O)c5cc(C(F)(F)F)cc([N+](=O)[O-])c5s4)CC3)C2)cc1 | 0.056 (≈ 0.0299 µg/mL) | 0.095 (≈ 0.0508 µg/mL)
6 | O=c1nc(N2CCC3(CCN(Cc4cccc(F)c4)CC3)CC2)sc2c([N+](=O)[O-])cc(C(F)(F)F)cc12 | < 0.035 | < 0.035
7 | NNC(=O)c1ccncc1 [ISONIAZID] | > 292 | 34.5 (≈ 4.73 µg/mL)
8 | COc1ccc(CN2CC3(CCN(c4nc(=O)c5cc(C(F)(F)F)cc([N+](=O)[O-])c5s4)CC3)C2)cc1 | 0.119 (≈ 0.0619 µg/mL) | 0.123 (≈ 0.064 µg/mL)
9 | CCOC(=O)CN1CCC2(CCN(c3nc(=O)c4cc(C(F)(F)F)cc([N+](=O)[O-])c4s3)CC2)C1 | 0.08 (≈ 0.04 µg/mL) | 0.06 (≈ 0.03 µg/mL)
10 | O=c1nc(N2CCC3(CCN(Cc4ccccc4)C3)CC2)sc2c([N+](=O)[O-])cc(C(F)(F)F)cc12 | < 0.035 | < 0.035
11 | O=c1nc(N2CCC3(CCN(Cc4cc(F)cc(F)c4)CC3)CC2)sc2c([N+](=O)[O-])cc(C(F)(F)F)cc12 | < 0.035 | < 0.035
12 | O=c1nc(N2CCC3(CCN(Cc4ccc(C(F)(F)F)cc4)CC3)CC2)sc2c([N+](=O)[O-])cc(C(F)(F)F)cc12 | < 0.035 | < 0.035
